For series [1], the target named is T1, Ectonucleotide pyrophosphatase/phosphodiesterase family member 1 (Homo sapiens) (UniProt P22413).
T1 sequence (whole entry): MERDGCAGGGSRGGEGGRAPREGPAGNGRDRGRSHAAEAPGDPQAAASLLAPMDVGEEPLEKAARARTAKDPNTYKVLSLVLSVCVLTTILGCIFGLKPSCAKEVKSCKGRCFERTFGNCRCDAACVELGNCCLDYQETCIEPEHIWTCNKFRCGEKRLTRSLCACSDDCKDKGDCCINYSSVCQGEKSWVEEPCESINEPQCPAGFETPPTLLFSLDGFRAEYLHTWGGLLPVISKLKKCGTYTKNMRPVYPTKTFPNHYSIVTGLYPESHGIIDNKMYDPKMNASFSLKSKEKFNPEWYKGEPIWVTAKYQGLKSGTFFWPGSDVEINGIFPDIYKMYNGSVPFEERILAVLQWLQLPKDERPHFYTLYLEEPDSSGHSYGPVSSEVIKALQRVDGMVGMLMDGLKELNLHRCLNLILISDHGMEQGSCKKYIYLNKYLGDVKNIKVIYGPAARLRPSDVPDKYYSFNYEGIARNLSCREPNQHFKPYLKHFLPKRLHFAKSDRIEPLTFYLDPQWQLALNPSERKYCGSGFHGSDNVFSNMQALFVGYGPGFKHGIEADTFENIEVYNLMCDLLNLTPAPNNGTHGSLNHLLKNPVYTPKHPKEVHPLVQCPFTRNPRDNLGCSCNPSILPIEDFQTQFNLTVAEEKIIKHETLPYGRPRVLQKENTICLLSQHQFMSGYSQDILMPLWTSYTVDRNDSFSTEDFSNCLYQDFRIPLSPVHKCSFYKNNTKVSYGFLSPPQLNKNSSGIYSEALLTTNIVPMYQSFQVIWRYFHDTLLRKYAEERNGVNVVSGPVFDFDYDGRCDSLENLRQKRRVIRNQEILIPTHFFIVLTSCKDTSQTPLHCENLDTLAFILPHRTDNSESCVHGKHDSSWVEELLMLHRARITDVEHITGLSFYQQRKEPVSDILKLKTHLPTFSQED
As to the kind of experiment: Inhibition of ENPP1 (unknown origin) at 10 uM relative to control.

Series [2] concerns the target T2, Ectonucleotide pyrophosphatase/phosphodiesterase family member 1 (Homo sapiens, UniProt P22413).
T2 sequence (P22413 whole entry): T1 sequence (whole entry)
Description: Inhibition of ENPP1 (unknown origin).

Series [3] can be described thus: Metabolic stability in human liver microsomes assessed as compound remaining at 1 uM after 30 mins. Particulars: read-out: Stability. It is filed as ADME, Microsome.
Series [4] is described as follows: Metabolic stability in rat liver microsomes assessed as compound remaining at 1 uM after 30 mins. The format is ADME, Microsome. As to conditions: read-out: Stability. (In general: Liver microsomes are vesicles of endoplasmic reticulum, rich in cytochrome P450 enzymes.)
Series [5] can be described thus: Metabolic stability in mouse liver microsomes assessed as compound remaining at 1 uM after 30 mins. The format is ADME, Microsome. As to conditions: read-out: Stability.
Another series addresses T3, CYP1A2 (Homo sapiens, UniProt P05177).
T3 sequence (P05177 whole entry): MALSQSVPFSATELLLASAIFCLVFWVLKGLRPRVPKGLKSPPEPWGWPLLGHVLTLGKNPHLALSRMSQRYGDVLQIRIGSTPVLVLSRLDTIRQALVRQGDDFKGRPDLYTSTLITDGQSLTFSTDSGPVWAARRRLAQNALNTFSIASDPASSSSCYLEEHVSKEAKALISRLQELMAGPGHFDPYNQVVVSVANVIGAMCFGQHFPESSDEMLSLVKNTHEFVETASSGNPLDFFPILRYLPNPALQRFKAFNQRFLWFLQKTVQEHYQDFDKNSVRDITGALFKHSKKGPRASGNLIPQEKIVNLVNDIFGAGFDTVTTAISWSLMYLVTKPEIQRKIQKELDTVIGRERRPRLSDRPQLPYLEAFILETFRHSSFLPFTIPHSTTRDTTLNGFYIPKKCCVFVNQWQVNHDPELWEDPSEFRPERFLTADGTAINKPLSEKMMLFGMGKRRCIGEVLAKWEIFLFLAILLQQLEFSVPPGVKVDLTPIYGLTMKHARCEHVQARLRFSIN
As to the kind of experiment: Inhibition of CYP1A2 (unknown origin) assessed as remaining activity at 10 uM relative to control. It is filed as ADME. Particulars: read-out: Activity.

Another series concerns the target CYP2C9 (Homo sapiens, UniProt P11712). As to the kind of experiment: Inhibition of CYP2C9 (unknown origin) assessed as remaining activity at 10 uM relative to control. It is filed as ADME. Particulars: read-out: Activity.
The target of a further series is CYP2C19 (Homo sapiens, UniProt P33261). As to the kind of experiment: Inhibition of CYP2C19 (unknown origin) assessed as remaining activity at 10 uM relative to control. The format is ADME. Particulars: read-out: Activity.
For the next series, the target named is CYP2D6 (Homo sapiens, UniProt P10635). As to the kind of experiment: Inhibition of CYP2D6 (unknown origin) assessed as remaining activity at 10 uM relative to control. It is filed as ADME. Particulars: read-out: Activity.
In a further series the target is CYP3A4 (Homo sapiens, UniProt P08684). Description: Inhibition of CYP3A4 (unknown origin) assessed as remaining activity at 10 uM relative to control. It is filed as ADME. Particulars: read-out: Activity.
Sequence of CYP3A4 (P08684 whole entry): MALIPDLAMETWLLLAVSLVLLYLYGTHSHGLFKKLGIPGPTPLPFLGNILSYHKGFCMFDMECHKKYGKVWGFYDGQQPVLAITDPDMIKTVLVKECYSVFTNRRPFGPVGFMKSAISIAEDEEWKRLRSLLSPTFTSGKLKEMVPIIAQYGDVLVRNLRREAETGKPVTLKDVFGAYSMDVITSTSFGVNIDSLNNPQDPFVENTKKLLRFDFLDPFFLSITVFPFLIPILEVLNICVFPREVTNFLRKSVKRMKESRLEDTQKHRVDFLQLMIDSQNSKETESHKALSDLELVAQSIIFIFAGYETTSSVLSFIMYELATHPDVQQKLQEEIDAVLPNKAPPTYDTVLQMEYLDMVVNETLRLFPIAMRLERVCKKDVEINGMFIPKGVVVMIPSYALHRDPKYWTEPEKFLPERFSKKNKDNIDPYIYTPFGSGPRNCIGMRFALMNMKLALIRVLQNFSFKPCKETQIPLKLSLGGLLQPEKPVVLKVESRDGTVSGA

Sequence of CYP2C9 (P11712 whole entry): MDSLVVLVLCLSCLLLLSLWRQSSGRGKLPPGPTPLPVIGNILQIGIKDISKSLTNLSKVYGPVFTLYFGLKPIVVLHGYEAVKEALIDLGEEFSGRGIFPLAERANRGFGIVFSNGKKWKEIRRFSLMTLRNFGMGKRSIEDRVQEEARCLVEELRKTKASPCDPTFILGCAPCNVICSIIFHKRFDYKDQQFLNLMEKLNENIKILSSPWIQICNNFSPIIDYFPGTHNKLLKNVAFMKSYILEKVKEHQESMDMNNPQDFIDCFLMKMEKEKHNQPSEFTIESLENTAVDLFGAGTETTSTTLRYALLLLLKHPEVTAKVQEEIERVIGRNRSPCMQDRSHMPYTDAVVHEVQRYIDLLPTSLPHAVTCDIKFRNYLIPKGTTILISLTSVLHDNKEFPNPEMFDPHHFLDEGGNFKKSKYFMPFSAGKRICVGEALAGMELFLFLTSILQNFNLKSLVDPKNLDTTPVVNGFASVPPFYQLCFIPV
Sequence of CYP2D6 (P10635 whole entry): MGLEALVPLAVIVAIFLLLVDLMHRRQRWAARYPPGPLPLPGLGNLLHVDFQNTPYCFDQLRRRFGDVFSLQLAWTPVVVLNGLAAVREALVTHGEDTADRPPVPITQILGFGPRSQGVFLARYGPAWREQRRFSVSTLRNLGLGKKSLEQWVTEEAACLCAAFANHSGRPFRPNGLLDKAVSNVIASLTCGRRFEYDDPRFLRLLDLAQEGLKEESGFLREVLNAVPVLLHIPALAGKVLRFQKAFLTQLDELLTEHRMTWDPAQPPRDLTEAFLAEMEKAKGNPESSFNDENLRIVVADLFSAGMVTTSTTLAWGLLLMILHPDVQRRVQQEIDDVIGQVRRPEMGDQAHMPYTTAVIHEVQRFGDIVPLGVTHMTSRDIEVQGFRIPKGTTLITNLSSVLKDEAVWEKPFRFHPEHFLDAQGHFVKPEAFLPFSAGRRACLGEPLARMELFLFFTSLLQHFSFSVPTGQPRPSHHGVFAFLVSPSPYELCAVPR
Sequence of CYP2C19 (P33261 whole entry): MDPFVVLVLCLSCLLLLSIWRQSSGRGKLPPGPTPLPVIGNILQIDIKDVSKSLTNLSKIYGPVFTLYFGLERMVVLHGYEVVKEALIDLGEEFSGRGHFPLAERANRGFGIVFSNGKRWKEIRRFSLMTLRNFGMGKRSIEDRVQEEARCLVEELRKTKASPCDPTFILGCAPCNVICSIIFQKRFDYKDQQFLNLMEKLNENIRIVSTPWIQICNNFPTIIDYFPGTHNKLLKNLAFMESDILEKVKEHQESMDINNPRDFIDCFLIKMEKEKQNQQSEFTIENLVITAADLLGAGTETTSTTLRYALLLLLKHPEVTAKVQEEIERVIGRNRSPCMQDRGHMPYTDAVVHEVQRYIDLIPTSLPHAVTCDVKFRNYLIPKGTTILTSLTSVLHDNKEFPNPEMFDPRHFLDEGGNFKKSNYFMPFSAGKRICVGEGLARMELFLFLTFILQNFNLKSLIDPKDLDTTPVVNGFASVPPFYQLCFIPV

A word on the inhibition: it is the drop in the measured response relative to a control, in per cent. The low end stands for little suppression, the high end for strong suppression. A word on the IC50: it is the point on the concentration scale where inhibition reaches its midpoint. Low values mean higher potency, high ones lower potency. Regarding `CN1Cc2c(-c3ccc(CNS(N)(=O)=O)cc3)ccnc2NC1=O`, the inhibition in [1] was 100%. This compound also had an IC50 in series [2] of 389 nM.

`NS(=O)(=O)NCc1cccc(-c2ccnc3c2CNC(=O)N3)c1`: the inhibition in [1] was 20%.

Turning to `CN1Cc2c(ncnc2N2CCC(C)(NS(N)(=O)=O)CC2)NC1=O`, the inhibition in [1] was 98%. Further, the midpoint of inhibition in [2], the IC50, lay at 236 nM.

In series [1], `CN1Cc2c(ncnc2-c2ccc(CNS(N)(=O)=O)cc2)NC1=O` yielded an inhibition of 97%. The compound also showed an IC50 in [2] of 452 nM.

In turn, `CN1Cc2c(ncnc2Nc2ccc(NS(N)(=O)=O)cc2)NC1=O` gave an inhibition in series [1] of 67%.

In the case of `Cc1ccc(S(=O)(=O)NCc2cccc(-c3ncnc4c3CN(C)C(=O)N4)c2)cc1`, the inhibition in series [1] worked out at 68%.

The compound `CN1Cc2c(-c3cccc(NS(N)(=O)=O)c3)ccnc2NC1=O` returned an inhibition in [1] of 95%. Further, the IC50 in series [2] came out at 766 nM.

`CN1Cc2c(ncnc2-c2ccc(CNS(N)(=O)=O)c(F)c2)NC1=O` came in with an inhibition in series [1] of 96%. This compound also came in with a concentration for half-maximal inhibition (IC50) in series [2] of 916 nM.

Consider `CN1Cc2c(ncnc2-c2cccc(CNS(C)(=O)=O)c2)NC1=O`, for which, in series [1], the inhibition was found to be 30%.

For `CN1Cc2c(ncnc2N2CCC(CNS(N)(=O)=O)CC2)NC1=O`, in series [1], the inhibition was determined as 100%. Inhibition in series [2] was half-maximal at 48 nM (IC50).

As to `NS(=O)(=O)Nc1cccc(-c2ccnc3c2CN(C2CC2)C(=O)N3)c1`, the inhibition in series [1] was 62%. Besides, 7460 nM corresponded to half-maximal inhibition in series [2] (IC50).

`NS(=O)(=O)NCc1ccc(-c2ccnc3c2CN(Cc2ccccc2)C(=O)N3)cc1` displayed an inhibition in [1] of 9%.

Compound `Cc1ccc(S(=O)(=O)NCc2cccc(-c3ccnc4c3CN(C)C(=O)N4)c2)cc1` registered an inhibition in [1] of 4%.

As to `CN1Cc2c(-c3cccc(CNS(N)(=O)=O)c3)ccnc2NC1=O`, the inhibition in series [1] turned out to be 96%. This compound also gave an IC50 in series [2] of 525 nM.

In turn, `CN1Cc2c(ncnc2N2CCC(C)(CCNS(N)(=O)=O)CC2)NC1=O` gave an inhibition in [1] of 93%. Also, in series [2], inhibition was half-maximal at 669 nM (IC50).

`CN1Cc2c(-c3cccc(CNS(C)(=O)=O)c3)ccnc2NC1=O` had an inhibition in series [1] of 15%.

Consider `CN1Cc2c(N3CCC(CCNS(N)(=O)=O)CC3)ncnc2N(C)C1=O`, for which the inhibition in series [1] is 62%.

For `CN1Cc2c(ncnc2-c2cccc(NS(N)(=O)=O)c2)NC1=O`, the inhibition in series [1] was 100%. It took 360 nM to reach half-maximal inhibition in series [2] (IC50).

As for `CN1Cc2c(NCc3ccc(NS(N)(=O)=O)cc3)ncnc2NC1=O`, the inhibition in series [1] stood at 100%. Also, the concentration for half-maximal inhibition (IC50) in [2] worked out at 45 nM.

`CN1Cc2c(-c3ccc(CN(C)S(N)(=O)=O)cc3)ccnc2NC1=O` gave an inhibition in [1] of 80%. Also, in series [2], the IC50 was 1160 nM.

`CN1Cc2c(ncnc2N2CCC(C)(CNS(N)(=O)=O)CC2)NC1=O` yielded an inhibition in [1] of 100%. For the same compound, half-maximal inhibition in [2] (IC50) was put at 3.7 nM. Further, the remaining at 0.5 h, 1 µM was 85.9% in series [3], 82.3% in [4] and 96.4% in [5]. Besides, the activity at 10 µM on CYP1A2 is 94.3%; on CYP2C9, 89.4%; at CYP2C19, over 100%; at CYP2D6, 90.9%; on CYP3A4 it was 89.7%.

Turning to `CN1Cc2c(-c3ccc(CNS(N)(=O)=O)cc3)ccnc2N(Cc2ccccc2)C1=O`, the inhibition in series [1] worked out at 0%.

With `NS(=O)(=O)NCc1ccc(-c2ccnc3c2CN(C2CC2)C(=O)N3)cc1`, in series [1], the inhibition worked out at 35%.

For `CN1Cc2c(ncnc2N2CCC(NS(N)(=O)=O)CC2)NC1=O`, the inhibition in series [1] amounted to 93%. In [2], this compound had an IC50 of 759 nM.

In [1], `CN1Cc2c(ncnc2-c2cccc(CNS(N)(=O)=O)c2)NC1=O` registered an inhibition of 99%. This compound also gave an IC50 in series [2] of 171 nM.

Take `CN1Cc2c(-c3ccc(CNS(N)(=O)=O)cc3)ccnc2N(C)C1=O`: the inhibition in [1] worked out at 96%. The same compound yielded an IC50 in series [2] of 326 nM.

`CN1Cc2c(-c3ccc(CNS(N)(=O)=O)c(F)c3)ccnc2NC1=O` had an inhibition in series [1] of 99%. The IC50 in [2] is 32.3 nM. The figures for the remaining at 0.5 h, 1 µM in [3], in series [4] and in series [5] were 86.9%, 86.7% and 91.1%, respectively. Further, the activity at 10 µM on CYP1A2, on CYP2C9, on CYP2C19, at CYP2D6 and on CYP3A4 was over 100% throughout.

Compound `CN1Cc2c(ncnc2N2CCC3(CC2)CCN(S(N)(=O)=O)C3)NC1=O` displayed an inhibition in series [1] of 100%. Besides, the IC50 in series [2] was 164 nM.

As to `CN1Cc2c(ncnc2N2CCC(CCNS(N)(=O)=O)CC2)NC1=O`, the inhibition in series [1] was 96%. For the same compound, inhibition in series [2] was half-maximal at 773 nM (IC50).

Values taken from ChEMBL document CHEMBL5236568, “Discovery of 3,4-dihydropyrimido[4,5-d]pyrimidin-2(1H)-one and 3,4-dihydropyrido[2,3-d]pyrimidin-2(1H)-one derivatives as novel ENPP1 inhibitors” (Bioorg Med Chem Lett, 2022).
